Laboratory results from PMC8315011, “The Spleen Tyrosine Kinase Inhibitor, Entospletinib (GS-9973) Restores Chemosensitivity in Lung Cancer Cells by Modulating ABCG2-mediated Multidrug Resistance” (International Journal of Biological Sciences, 2021).

How the values were obtained:
[1] = biological target: T1, ABCG2 (Homo sapiens, UniProt Q9UNQ0); test: ABCG2 ATPase stimulation in membrane vesicles ([…] of basal); supported by inhibition of [3H]-mitoxantrone efflux in NCI-H460/MX20 cells at […]; assay type: biochemical; parameters: membrane vesicles with ABCG2 (PREDEASY ATPase kit)
T1 sequence (Q9UNQ0 1-655): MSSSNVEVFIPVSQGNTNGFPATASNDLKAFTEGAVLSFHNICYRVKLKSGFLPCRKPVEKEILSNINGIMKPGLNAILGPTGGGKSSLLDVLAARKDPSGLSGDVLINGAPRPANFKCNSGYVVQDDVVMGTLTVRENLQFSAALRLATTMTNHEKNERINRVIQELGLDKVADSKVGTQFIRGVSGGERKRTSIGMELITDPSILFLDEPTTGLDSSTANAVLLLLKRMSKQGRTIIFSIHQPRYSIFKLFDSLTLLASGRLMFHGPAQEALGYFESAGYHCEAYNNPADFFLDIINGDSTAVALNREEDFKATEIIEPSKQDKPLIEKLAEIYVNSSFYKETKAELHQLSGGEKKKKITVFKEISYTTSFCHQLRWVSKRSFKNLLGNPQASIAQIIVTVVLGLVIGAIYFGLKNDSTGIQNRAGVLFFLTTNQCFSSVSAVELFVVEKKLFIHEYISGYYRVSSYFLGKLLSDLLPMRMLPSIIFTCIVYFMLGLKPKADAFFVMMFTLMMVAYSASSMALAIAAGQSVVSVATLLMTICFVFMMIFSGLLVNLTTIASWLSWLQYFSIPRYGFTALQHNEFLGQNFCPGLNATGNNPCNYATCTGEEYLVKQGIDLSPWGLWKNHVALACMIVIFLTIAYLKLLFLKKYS

[2] = biological target: T1, ABCG2

Structure (SMILES) | EC50 [1] | radiolabelled substrate accumulation and efflux, parental vs ABCG2-overexpressin [2]
c1cn2cc(-c3ccc4cn[nH]c4c3)nc(Nc3ccc(N4CCOCC4)cc3)c2n1 [GS-9973] | 420 nM | 
O=C1c2c(O)ccc(O)c2C(=O)c2c(NCCNCCO)ccc(NCCNCCO)c21 [mitoxantrone] |  | proving that the efflux of [^3H]-mitoxantrone was mediated by the ABCG2 transporter
